Laboratory results taken from article PMC3816687, “Relationships between Cargo, Cell Penetrating Peptidesand Cell Type for Uptake of Non-Covalent Complexes into Live Cells” (Pharmaceuticals, 2013).
Entries after “also recorded” stand apart in the source; their conditions may differ. Read-outs that look alike come from different tables or passages of the source. *1 amine or outer side, *2 acyl side, *3 side chain or, on linkers, in order; H or OH if unused. Cysteamide = C(CS[*:3])N[*:1]

Columns and labels:
HeLa cells [1] = conditions: non-covalent complexes; cited from earlier work
Method: Table 4 Intracellular amounts and concentrations. Internalized amounts are calculated from fluorescence intensities in the homogenate directly or after separation by SDS-PAGE. In the case of nucleoside triphosphates quantification was performed by fluorescence spectrometry. Estimation of cell volumes allows the calculation of intracellular concentrations. […] The rank order for the uptake of β-galactosidase into HeLa cells: JBS-Proteoducin > MPGα ≥ MPGβ > CAD-2 >> CPPP-2 // HIV-TAT = penetratin provides evidence for different requirements of enzyme and nucleotide for co ...

Leishmania tarentolae [2] = conditions: non-covalent complexes; cited from earlier work
Excerpt: Formation of non-covalent complexes between cargo and CPP occurs by optimized interaction of the CPP with the surface of the cargo. These complexes are stabilized by ionic, polar, π-electron-cation, or hydrophobic interactions, hydrogen bonds and common interactions between molecules. Thus, for the same cell type different cargoes show different rank orders for CPPs.

Leishmania tarentolae [3] = assay: Cytotoxicity test for Leishmania tarentolae (morphology and motility); assay type: cell-based
Method: Leishmania cells were cultivated as described previously, resuspended in PBS and treated with increasing concentrations of cocktails and CPPs for 1 h. Cytotoxic effects were monitored by changes in morphology and motility observed using a microscope at 400-fold magnification.

Leishmania tarentolae [4] = assay: Transduction of ATTO488-BSA into Leishmania tarentolae; assay type: cell-based; conditions: molar ratio 1:10, Leishmania tarentolae, fluorescence plate reader after cell lysis
Method: A detailed description of formation of complexes with peptides and proteins is given in a previous publication. Briefly, cargo proteins (ATTO488-BSA, MW ≈ 68 kDa, β-galactosidase, MW ≈ 540 kDa) and the calculated volume of stock solution of CPPs or JBS-Proteoducin were dissolved separately in 100 µL of 1× PBS). Both solutions were thoroughly mixed by repeated pipetting. The mixture was incubated for 30 minutes at 37 °C to achieve complex formation. The molar ratio of cargo to CPPs was usually calculated to 1:10. For internalization of higher amounts of cargo, both the amount of protein and stock solution of CPP or cocktail, respectively, were multiplied. […]
For confocal microscopy of fixed and living cells, a LSM 710 laser scanning confocal microscope was used as previously described. […] To avoid bleed-through effects in multi-fluorescence staining experiments, each dye was scanned independently in a multitracking mode. […]
Quantitative fluorescence measurements on internalized fluorescent nucleotide and SDS-PAGE with fluorescent proteins allow the calculation of the internalized amount of cargo. […] The mean volume was calculated to 1.2 × 10^−5 µL. […] Uptake of ATTO488-BSA into Leishmania tarentolae was estimated with a fluorescence plate reader after cell lysis. The volume of Leishmania tarentolae was calculated to 2.0 × 10^−7 µL.

Jurkat cells = assay: Internalization of β-galactosidase into Jurkat cells, X-gal staining; assay type: cell-based, Human; conditions: complexes of β-galactosidase and CPP, ratio 1:10, X-Gal staining
Method: (§1) A detailed description of formation of complexes with peptides and proteins is given in a previous publication. Briefly, cargo proteins (ATTO488-BSA, MW ≈ 68 kDa, β-galactosidase, MW ≈ 540 kDa) and the calculated volume of stock solution of CPPs or JBS-Proteoducin were dissolved separately in 100 µL of 1× PBS). Both solutions were thoroughly mixed by repeated pipetting. The mixture was incubated for 30 minutes at 37 °C to achieve complex formation. The molar ratio of cargo to CPPs was usually calculated to 1:10. For internalization of higher amounts of cargo, both the amount of protein and stock solution of CPP or cocktail, respectively, were multiplied. Complexes of the enzyme β-galactosidase and JBS-Proteoducin were formed from 1 µg β-galactosidase and 1 µL stock solution of JBS-Proteoducin under the described conditions.
The thoroughly washed cell pellet was suspended in 200 µL of complex solution followed by 400 µL of serum free medium, gently mixed and transferred into 24-well plates. […] After addition of 1.4 mL of complete culture medium incubation was continued at 37 °C for approx. 2 h in a humidified atmosphere containing 5% CO2. The cells were washed by spinning down twice with PBS, three times with glycine buffer (pH 3.0) and twice with PBS.
(§2) Staining of the cells took place in multiwell-plates. Jurkat and Leishmania cells were stained according to the instructions described in [24], using a staining solution containing potassium ferrocyanide, potassium ferricyanide and X-gal. Leishmania cells were stained after finishing the above described transduction protocol. For Jurkat cells the staining was performed after transferring cells from spinning tubes used in the last washing step to 24-well plates. Cells were incubated in staining solution overnight and directly observed in a microscope using a 400-fold magnification.

Leishmania tarentolae [5] = assay: Internalization of β-galactosidase into Leishmania tarentolae, X-gal staining; assay type: cell-based; conditions: molar ratios 1:5, 1:10, 1:20 of cargo and CPP
Method: as §1
For transduction cells in an early stage of development were used. To this end stock cultures were diluted 1:10 the day before the experiment into 10 mL of culture medium in 25 cm^2-ventilated tissue culture flasks and were incubated overnight in the dark at 26 °C for optimal proliferation. Cell suspensions with an OD of 1.2 (ca. 4 × 10^7 cells/mL) were used for transduction. The cells were thoroughly washed twice with PBS (5 mL each) by centrifugation (2,000 × g, 3 min). Pellets were resuspended in the original volume of PBS containing 0.1% BSA and aliquoted into 24-well plates. Four hundred µL of cell suspension were used per experiment. Two hundred µL of the complex solutions were added to these cells and mixtures were incubated for 1 h at 26 °C in the dark with gentle agitation. Successively, 1 mL of complete growth medium (LEXSY BHI) was added per sample and incubation was continued at 26 °C for 2 h. Cells were washed twice with PBS (2 mL each) by centrifugation (2,000 × g, 3 min) prior to analysis of transduction.
as §2

HeLa cells [6] = conditions: non-covalent complexes, X-Gal staining; cited from earlier work
Excerpt: HeLa cells: As shown in our preceding publication, the CPP cocktail JBS-Proteoducin can internalize enzymatic active β-galactosidase into all cell types investigated, including difficult to transfect Kasumi-1 cells. The active enzyme was transported not only into all types of cells but all of the observed cells are also positively stained using the β-galactosidase substrate 5-bromo-4-chloro-indolyl-β-D-galactopyranoside (X-Gal).

COS-7 cells = assay: Degradation of CPPs by secreted and surface bound proteases of COS-7 cells; conditions: 60 min incubation with 0.3 × 10^6 intact cells per well, PBS, 37 °C, 5% CO2, RP18 HPLC, 220 nm
Method: (§3) In a 6-well-plate with 0.3 × 10^6 cells per well the different cell types were cultivated overnight under optimized conditions. Then medium was removed by aspiration (adherent cell) or centrifugation (suspension cells) and washed cells were incubated with CPPs in phosphate buffer solution (PBS). Incubation was performed under the same conditions as the transduction of complexes with the cargo for 1 h at 37 °C in a humidified atmosphere containing 5% CO2. After 15, 30, 45 and 60 min samples of 200 µL were taken and the proteolytic reaction was stopped by addition of 50 µL 37 perc. HCl. After freezing and lyophilization samples were analyzed by analytical high performance liquid chromatography (HPLC), using a RP18 column (Vydac 218TP). In case of MPGβ, for elution a gradient was used from 10% acetonitrile and 90% water, both containing 0.1% trifluoroacetic acid to 60% acetonitrile and 40% water in 50 min. […] The flow rate was 1.0 ml/min and detection was performed at 220 nm.

NB-4 cells [7] = assay: Membrane integrity, CytoTox-Glo assay, NB-4 cells; assay type: cell-based, Human; conditions: low concentrations (9.4 µM), 1 h at 37 °C in serum-free medium, triplicates
Method: (§4) Cells were cultured under standard conditions and treated in serum-free medium for 1 h at 37 °C with different CPPs and the cocktail. After removal of CPPs and repeated washings the membrane integrity of the cells was estimated by the bioluminescence test CytoTox-Glo measuring the release of a cytosolic dead-cell protease. The CytoTox-Glo assay was performed according to the supplier’s instructions and adapted to 96-well plates. Bioluminescence was estimated by a luminescence plate reader. Each value was measured in triplicates with an SD of ± 1.2.

[8] = system: most of the cells investigated; assay: Proteolytic stability of CPPs compared over the cells investigated; assay type: in vitro ADME; conditions: incubation with intact cells up to 60 min, PBS, 37 °C, HPLC
Method: as §3

HeLa cells [9] = assay: Membrane integrity, CytoTox-Glo assay, HeLa cells; assay type: cell-based, Human; conditions: low concentrations (9.4 µM), 1 h at 37 °C in serum-free medium, triplicates
Method: as §4

different cell lines = assay: Membrane integrity, CytoTox-Glo assay, different cell lines; assay type: cell-based; conditions: up to 141 µM, 1 h at 37 °C in serum-free medium, triplicates
Method: as §4

NB-4 cells [10] = assay: Degradation of CPPs by proteases of NB-4 cells; assay type: in vitro ADME, Human; conditions: 60 min incubation with 0.3 × 10^6 intact cells per well, PBS, 37 °C, 5% CO2, RP18 HPLC, 220 nm
Method: as §3

[11] = 1 h in PBS with increasing concentrations, changes in morphology and motility, microscope 400-fold

Row | Substance | rank order of uptake efficiency of ATTO488-dUTP into HeLa cells (HeLa cells [1]) | rank order for transport of ATTO488-labeled BSA into Leishmania (Leishmania tarentolae [2]) | Cytotoxicity in Leishmania tarentolae (Leishmania tarentolae [3]) [µM] | Internalized amount, amol per cell (Leishmania tarentolae [4]; cargo ATTO488-BSA 1 µg + CPP) | Internalized amount, amol per cell (Leishmania tarentolae [4]; cargo ATTO488-BSA 10 µg + CPP) | rank order for internalization of β-galactosidase into Jurkat cells (Jurkat cells) | rank order for uptake efficiency of β-galactosidase into Leishmania tarentolae (Leishmania tarentolae [5]) | rank order for internalization of β-galactosidase into HeLa cells (HeLa cells [6]) | Cytotoxicity in Leishmania tarentolae (Leishmania tarentolae [3]; [11]) [µM] | sensitivity of Leishmania tarentolae cells (Leishmania tarentolae [3]; concentrations of 10 µM, morphology and motility) | stability against proteolytic cleavage by COS-7 cells (HPLC peak) (COS-7 cells) | membrane integrity of NB-4 cells (release of dead-cell protease) (NB-4 cells [7]) | relative proteolytic stability among the CPPs [8] | membrane integrity of HeLa cells (release of dead-cell protease) (HeLa cells [9]) | reduction of membrane integrity with increasing concentrations (different cell lines) | stability against proteolytic cleavage by NB-4 cells (HPLC peak) (NB-4 cells [10])
1 | Ac-GALFLAFLAAALSLMGLWSQPKKKRKV-NH-CH2-CH2-SH (Ac-GALFLAFLAAALSLMGLWSQPKKKRKV-Cysteamide; SMILES CSCC[C@H](NC(=O)[C@H](CC(C)C)NC(=O)[C@H](CO)NC(=O)[C@H](CC(C)C)NC(=O)[C@H](C)NC(=O)[C@H](C)NC(=O)[C@H](C)NC(=O)[C@H](CC(C)C)NC(=O)[C@H](Cc1ccccc1)NC(=O)[C@H](C)NC(=O)[C@H](CC(C)C)NC(=O)[C@H](Cc1ccccc1)NC(=O)[C@H](CC(C)C)NC(=O)[C@H](C)NC(=O)CNC(C)=O)C(=O)NCC(=O)N[C@@H](CC(C)C)C(=O)N[C@@H](Cc1c[nH]c2ccccc12)C(=O)N[C@@H](CO)C(=O)N[C@@H](CCC(N)=O)C(=O)N1CCC[C@H]1C(=O)N[C@@H](CCCCN)C(=O)N[C@@H](CCCCN)C(=O)N[C@@H](CCCCN)C(=O)N[C@@H](CCCNC(=N)N)C(=O)N[C@@H](CCCCN)C(=O)N[C@H](C(=O)NCCS)C(C)C) [MPGα, MPG cell penetrating peptide, 5 positive charges] | JBS-Nucleoducin > CAD-2 > MPGα ≥ MPGβ > penetratin >> CPP-2 | MPGα >> CAD-2 > histone | ≤ 5 | 0.8 x 10^−2 amol per cell | 3.3 x 10^−2 amol per cell | JBS-Proteoducin > MPGβ > MPGα > CAD-2 >> CPPP-2 | CAD-2 > MPGα > Histone > MPGβ >> penetratin ≥ HIV-TAT ≥ CPPP-2 | JBS-Proteoducin > MPGα ≥ MPGβ > CAD-2 >> CPPP-2 // HIV-TAT, penetratin |  |  |  |  |  |  |  | 
2 | Ac-GALFLGFLGAAGSTMGAWSQPKKKRKV-NH-CH2-CH2-SH [MPGβ, MPG cell penetrating peptide, 5 positive charges] | JBS-Nucleoducin > CAD-2 > MPGα ≥ MPGβ > penetratin >> CPP-2 |  |  |  |  | JBS-Proteoducin > MPGβ > MPGα > CAD-2 >> CPPP-2 | CAD-2 > MPGα > Histone > MPGβ >> penetratin ≥ HIV-TAT ≥ CPPP-2 | JBS-Proteoducin > MPGα ≥ MPGβ > CAD-2 >> CPPP-2 // HIV-TAT, penetratin | ≤ 5 | very sensitive | strongly reduced |  |  |  |  | 
3 | GLWRALWRLLRSLWRLLWKA-NH-CH2-CH2-SH [CAD-2, des-acetyl, Lys^19-CADY, cell penetrating peptide, 6 positive charges] | JBS-Nucleoducin > CAD-2 > MPGα ≥ MPGβ > penetratin >> CPP-2 | MPGα >> CAD-2 > histone | ≤ 25 |  |  | JBS-Proteoducin > MPGβ > MPGα > CAD-2 >> CPPP-2 | CAD-2 > MPGα > Histone > MPGβ >> penetratin ≥ HIV-TAT ≥ CPPP-2 | JBS-Proteoducin > MPGα ≥ MPGβ > CAD-2 >> CPPP-2 // HIV-TAT, penetratin |  |  | remains stable | sensitive | nearly unaffected; also recorded: most stable | sensitive | very low | remains stable
4 | KLPVM [CPPP-2, cell penetrating pentapeptide, 2 positive charges] | JBS-Nucleoducin > CAD-2 > MPGα ≥ MPGβ > penetratin >> CPP-2 |  |  |  |  | JBS-Proteoducin > MPGβ > MPGα > CAD-2 >> CPPP-2 | CAD-2 > MPGα > Histone > MPGβ >> penetratin ≥ HIV-TAT ≥ CPPP-2 | JBS-Proteoducin > MPGα ≥ MPGβ > CAD-2 >> CPPP-2 // HIV-TAT, penetratin | ≥ 100 |  |  |  |  |  |  | 
5 | YGRKKRRQRRR-amide [HIV-TAT (47-57), amphiphilic-cationic cell penetrating peptide, 9 positive charges] | not able to transport |  |  |  |  |  | CAD-2 > MPGα > Histone > MPGβ >> penetratin ≥ HIV-TAT ≥ CPPP-2 | JBS-Proteoducin > MPGα ≥ MPGβ > CAD-2 >> CPPP-2 // HIV-TAT, penetratin | ≥ 30 |  |  |  |  |  |  | 
